From PubChem BioAssay (NCI)
Where “and” joins values, the source holds several entries; their conditions need not be identical. Identical values can stand only once.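 Results reflect a 48-hour exposure of cells in 96-well plates to compound at five concentrations. At the GI50, growth is halved. At the TGI there is no net growth.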

Legend:
Assay in all cases: NCI tumour cell line growth inhibition, 48 h
[1] = test system: DLD-1 colon
[2] = test system: HOP-18 NSCLC
[3] = test system: KM20L2 colon
[4] = test system: M19-MEL melanoma
[5] = test system: MDA-MB-435
[6] = test system: MDA-N
[7] = test system: P388 leukemia
[8] = test system: P388/ADR leukemia
[9] = test system: RXF-631 renal
[10] = test system: SN12K1 renal
[11] = test system: XF 498 CNS

Compound: CC[C@](O)(C(=O)O)c1cc2n(c(=O)c1CO)Cc1cc3ccccc3nc1-2
- GI50 [1]: 0.311 µM and 0.337 µM
- TGI [1]: 30 µM
- TGI [2]: 4.88 µM
- GI50 [3]: 0.209 µM
- TGI [3]: 3.96 µM
- TGI [4]: 0.547 µM
- GI50 [5]: 0.101 µM
- TGI [5]: 0.632 µM and 0.516 µM
- TGI [6]: 0.605 µM
- TGI [7]: 0.294 µM
- TGI [8]: 25.6 µM
- TGI [9]: 1.04 µM
- TGI [10]: 2.73 µM
- GI50 [11]: 0.614 µM
- TGI [11]: 4.41 µM and 0.793 µM
